Reference: patent publication US6171786A, “Methods for preventing multidrug resistance in cancer cells” (priority 1996, dated 2001)
“Also recorded” adds a separate entry of the source. Read-outs that look alike come from different tables or passages of the source.

Assays:
MDR1 expression [1] = test: Inhibition of cytotoxic drug-induced MDR1 expression by protein kinase inhibitors (cDNA-PCR); details: for inhibition of MDR1 induction by cytotoxic drugs: concentration not stated
Description: Cells were plated in 6-well Falcon tissue culture plates at 3,300 cells per well, and incubated in the appropriate concentrations of drugs. Each of the protein kinase inhibitors to be tested were added at the appropriate final concentration 45 minutes prior to MDR1 induction by the addition of Ara-C or TPA, with the exception of herbimycin A, which was added 12 hours prior to Ara-C or TPA, and tyrphostins A25 and B46, which were each added 16 hours prior to MDR1 induction by the addition of Ara-C or TPA. Cells were incubated overnight (TPA) or for 10 hours (Ara-C) at 37° C./ 5% CO2 after the addition of the MDR1 inducing agents before harvesting for cDNA-PCR analysis.
In addition, the analysis of certain drugs imposed added requirements. For experiments using calphostin C, cells were incubated under direct white light illumination. For experiments using D,L-threo-sphingosine, the cell culture medium was pre-treated with the appropriate concentration of the drug for one hour at 37° C. with continuous gentle mixing. After this pretreatment, cells were resuspended in media supplemented with drug and incubated for 45 minutes as described above.
To further evaluate the capacity of protein kinase inhibitors to suppress MDR1 induction by cytotoxic drugs and PKC agonists, H-9 human T-cell leukemia cells were used in cDNA-PCR assays to examine induced MDR1 mRNA expression levels in the presence of protein kinase inhibitors.

[2] = tested on: MDR1 expression (P-glycoprotein); test: Induction of MDR1 expression by cytotoxic drugs (dye efflux, UIC2, cDNA-PCR); type: cell-based, human
Description: (§1) (Commercially-available kits (for example, from GIBCO/BRL, Gaithersburg, Md.) can be advantageously modified for making cDNA using random hexamers.) PCR is then performed using the following primers: […]
(§2) (where β2 M represents β2 microglobulin). PCR was performed for β2 M experiments under a regime consisting of 1 cycle comprising denaturation at 94° C. for 3 minutes, primer annealing at 60° C. for 30 seconds, and primer extension at 72° C. for 1 minute, followed by 19 cycles comprising denaturation at 94° C. for 30 seconds, primer annealing at 60° C. for 30 seconds, and primer extension at 72° C. for 1 minute, followed by a final cycle comprising denaturation at 94° C. for 30 seconds, primer annealing at 60° C. for 30 seconds, and primer extension at 72° C. for 5 minutes. MDR1 cDNA sequences were amplified using the identical protocol as for β2 M, but extending the amplification from 19 cycles to 25 cycles. In addition, the cDNA-PCR amplification protocol contained the following modifications: (i) Taq DNA polymerase was added to the PCR mixtures after initial heating of the samples to 94° C. (ii) The yield of the β2 -microglobulin-specific band, obtained after 22-28 cycles of PCR, was used as the primary criterion for equalizing the starting amounts of the cDNA templates in different preparations, in order to account for differential RNA degradation in cells subjected to different types of treatment. ^32 P-labeled PCR products were detected by autoradiography.
In particular PKC is activated by treatment with Ara-C. Therefore, experiments were performed to test whether Ara-C, which is not transported by P-glycoprotein, would have any effect on P-glycoprotein function in K562 leukemia cells.
Also assayed was whether drug-induced MDR1 expression was maintained after cytotoxic drug treatment. […] At different times, MDR1 expression in the surviving cells was analyzed by dye efflux and immunofluorescence labeling with UIC2 (FIG. 3C) or by cDNA-PCR (FIG. 4E).

MDR1 expression [3] = test: Inhibition of cytotoxic drug-induced MDR1 expression by cytoplasmic calcium antagonists and calmodulin inhibitors; type: cell-based, human; details: H9; for inhibition of AraC-induced MDR1 gene expression: 10 μM calmidazolium chloride, 25 μM AraC
Description: H9 cells were incubated as described above in the presence of the following cytotoxic drugs: Ara C (at a concentration of 25 μM), Adriamycin (2 μM), bleomycin (100 μg/ml), 2-deoxyglucose (10 mM) and nocodazole (2.5 μM). In parallel, cultures of H9 cells were incubated in the presence of each of these cytotoxic drugs and of a highly specific chelator of intracellular calcium ion, 1, 2-bis(o-aminophenoxy)-ethane-N,N,N',N'-tetraacetic acid, tetra(acetoxymethyl)-ester (BAPTA/AM) at a concentration of 5 μM for 10 hrs. under the conditions described above. The inhibitor was added 45 min. prior to the addition of each of the MDR1 inducing agents. cDNA-PCR analysis, including gel electrophoresis and autoradiography as described above, was performed for each culture after drug treatment in the presence or absence of this chelator.
H9 cells were incubated as above with 25 μM AraC in the presence or absence of 10 μM calmidazolium chloride, and cDNA-PCR analysis as described above was performed.

[4] = tested on: MDR1 expression (P-glycoprotein); test: MDR1/P-glycoprotein expression in human cells treated with TPA, DOG, other agents (Rh123 accumulation, UIC2 staining, cDNA-PCR); type: cell-based
Description: KG1 cell line was maintained in Iscove's modified Dulbecco medium with 20% fetal calf serum (FCS) and 2 mM L-glutamine, 100 units/mL penicillin and 100 μg/mL streptomycin (GIBCO Laboratories, Grand Island, N.Y.).
PBL were treated with 1 ng/mL TPA; H9 and K562 cells with 10 ng/mL TPA; KG1a and KG1 cells with 100 ng/mL TPA and the other cell lines with 10 ng/mL TPA.
Mouse IgG2a isotype control antibody was obtained from Sigma. For staining of PBL with UIC2 mAb or isotype control, 10^6 cells were stained at 4° C. with 10 μg of the antibody for 30 minutes and, after two washes, stained for 30 minutes with 10 μg of FITC-conjugated goat anti-mouse IgG2a antibody (Fisher Scientific, Fairlawn, N.J.), diluted 1:2 with PBS plus 2% FCS. Cells were then washed twice with ice-cold PBS plus 2% FCS, stained with PI and kept on ice until analysis. Essentially the same protocol was used for staining of other cell types except that 2 μg of the secondary antibody were used per 10^6 cells. In some experiments, phycoerythrine (PE)-conjugated goat anti-mouse IgG2a was used as the secondary antibody; no PI was added in such cases.
as §1, §2
A functional assay was used to detect changes in P-glycoprotein activity in human PBL treated with different agents that induce lymphoid differentiation or activation, based on flow cytometric analysis of cellular accumulation of Rh123, which is a P-glycoprotein-transported fluorescent mitochondrial dye. In this assay, cells expressing little or no P-glycoprotein stain brightly with Rh123, whereas cells with higher levels of P-glycoprotein activity appear Rh123-dull. […] Since the best-known cellular effect of TPA is the stimulation of PKC, DOG (a cell-permeable diacylglycerol and a physiological stimulant of PKC) was also tested to determine its effects on Rh123 accumulation in PBL.

[5] = human leukemia and solid-tumor derived cell lines, short-term exposure
[6] = 50-100 μM tyrphostin, H-9 cells

In the case of `CCCCCCCCCCCCC/C=C/[C@H](O)[C@@H](N)CO` (relative stereo) [D,L-threo-sphingosine], the “inhibition of Ara-C induced MDR1 expression” value (MDR1 expression [1]; 5 μM D,L-threo-sphingosine) was “little or no capacity to inhibit Ara-C induced MDR1 expression; also recorded: ineffective” and the “Inhibition of Ara-C induced MDR1 expression” value (MDR1 expression [1]; 5 μM, H-9, 25 μM Ara-C 10 h) was “-”.
`O=c1[nH]cc(F)c(=O)[nH]1` [5-fluorouracil] was tested, and the MDR1 induction [2] was “MDR1 induction, both at the mRNA and at the protein levels, was observed”.
With `COc1cccc2c1C(=O)c1c(O)c3c(c(O)c1C2=O)C[C@@](O)(C(=O)CO)C[C@@H]3O[C@H]1C[C@H](N)[C@H](O)[C@H](C)O1` [Adriamycin, Doxorubicin] the “Rh123 or DiOC2(3) efflux by treated cells” value (“Rh123 or DiOC2(3) efflux” below) ([2]; K562) was 3-10%, the “MDR1 mRNA expression” value ([2]; K562, cDNA-PCR) was “induce MDR1 mRNA expression” and the “maintenance of MDR1 expression after removal of drug” value ([2]; K562 subpopulation, treated 3-5 days then drug-free) was “maintained for a least several weeks”. The “MDR1 mRNA expression” value ([2]; KB-3-1 epidermoid carcinoma) was “MDR1 mRNA expression was induced” and the MDR1 induction [2, 5] was “MDR1 induction, both at the mRNA and at the protein levels, was observed”.
`CC(=O)OCOC(=O)CN(CC(=O)OCOC(C)=O)c1ccccc1OCCOc1ccccc1N(CC(=O)OCOC(C)=O)CC(=O)OCOC(C)=O` [BAPTA/AM, 1,2-bis(o-aminophenoxy)ethane-N,N,N',N'-tetraacetic acid, tetra(acetoxymethyl)ester] was tested, and the “inhibition of MDR1 induction by 2-deoxyglucose (10 mM)” value (MDR1 expression [3]; 5 μM BAPTA/AM) was “completely abrogate the induction of MDR1 expression”, the “inhibition of MDR1 induction by Adriamycin (2 μM)” value (MDR1 expression [3]; 5 μM BAPTA/AM) was “completely abrogate the induction of MDR1 expression” and the “inhibition of MDR1 induction by Ara C (25 μM)” value (MDR1 expression [3]; 5 μM BAPTA/AM) was “completely abrogate the induction of MDR1 expression”. For the same compound, the “inhibition of MDR1 induction by bleomycin (100 μg/ml)” value (MDR1 expression [3]; 5 μM BAPTA/AM) was “completely abrogate the induction of MDR1 expression”, the “inhibition of MDR1 induction by different cytotoxic agents” value (MDR1 expression [3]; 5 μM BAPTA/AM) was “completely abrogated the induction of MDR1 expression” and the “inhibition of MDR1 induction by nocodazole (2.5 μM)” value (MDR1 expression [3]; 5 μM BAPTA/AM) was “completely abrogate the induction of MDR1 expression”. The “time prior to addition of MDR1 inducers within which inhibitory effect was detectable” value (MDR1 expression [3]; BAPTA/AM) was ≤ 3 h.
With `CCCCCCCC(=O)OCC(CO)OC(=O)CCCCCCC` (centres unmarked) [DOG, 1,2-dioctanoylglycerol] the “effect on P-glycoprotein activity (Rh123 accumulation)” value ([4]; human PBL) was “decrease Rh123 accumulation” and the MDR1 gene expression ([4]; normal human PBL and leukemia/solid tumor cell lines) was “increase MDR1 gene expression”.
In the case of `CC1CNCCN1S(=O)(=O)c1cccc2cnccc12` (centres unmarked) [H7], the “prevention of MDR1 induction by chemotherapeutic drugs” value (MDR1 expression [1]) was “prevent MDR1 induction by chemotherapeutic drugs” and the “inhibition of MDR1 induction by cytotoxic drugs” value (MDR1 expression [1]) was “capable of inhibiting MDR1 induction by cytotoxic drugs”.
In the case of `Clc1ccc(C(c2ccc(Cl)cc2)n2cc[n+](CC(OCc3ccc(Cl)cc3Cl)c3ccc(Cl)cc3Cl)c2)cc1` (centres unmarked) [calmidazolium chloride], the “inhibition of AraC-induced MDR1 gene expression” value (MDR1 expression [3]) was “inhibit AraC-induced MDR1 gene expression” and the “inhibition of AraC-induced MDR1 gene expression” value (MDR1 expression [3]; listed as Calmidazolium chloride) was “efficiently abrogate AraC induction of MDR1 expression”.
In the case of `COc1c(CC(C)OC(=O)Oc2ccc(O)cc2)c2c3c(CC(C)OC(=O)c4ccccc4)c(OC)c(=O)c4c(O)cc(OC)c(c5c(OC)cc(O)c(c1=O)c52)c43` (centres unmarked) [calphostin C], the “inhibitory capacity on Ara-C induced MDR1 expression” value (MDR1 expression [1]; 0.1 μM calphostin C + white light) was “greatly reduced”, the “inhibition of Ara-C induced MDR1 expression” value (MDR1 expression [1]; 1 μM calphostin C + white light) was “capable of inhibiting MDR1 expression; also recorded: prevent MDR1 induction by chemotherapeutic drugs” and the “inhibition of MDR1 induction by cytotoxic drugs” value (MDR1 expression [1]) was “capable of inhibiting MDR1 induction by cytotoxic drugs”.
`N.N.[Cl][Pt][Cl]` [cisplatin] was tested, and the “Rh123 or DiOC2(3) efflux” value ([2]; K562) was 3-10%, the “MDR1 mRNA expression” value ([2]; K562, cDNA-PCR) was “induce MDR1 mRNA expression” and the MDR1 induction [2, 5] was “MDR1 induction, both at the mRNA and at the protein levels, was observed”.
For `COc1cccc2c1C(=O)c1c(O)c3c(c(O)c1C2=O)C[C@@](O)(C(C)=O)C[C@@H]3O[C@H]1C[C@H](N)[C@H](O)[C@H](C)O1` [daunorubicin], the MDR1 induction [2] was “MDR1 induction, both at the mRNA and at the protein levels, was observed”, the “MDR1 mRNA expression” value [2] was “induce MDR1 mRNA expression” and the “Rh123 or DiOC2(3) efflux” value [2] was 3-10%.
For `COc1cc([C@@H]2c3cc4c(cc3[C@@H](O[C@@H]3O[C@@H]5CO[C@@H](C)O[C@H]5[C@H](O)[C@H]3O)[C@H]3COC(=O)[C@H]23)OCO4)cc(OC)c1O` [etoposide], the MDR1 induction [2] was “MDR1 induction, both at the mRNA and at the protein levels, was observed”.
For `O=c1c(-c2ccc(O)cc2)coc2cc(O)cc(O)c12` [genistein], the “Inhibition of Ara-C induced MDR1 expression” value (MDR1 expression [1]) was “+” and the “inhibition of Ara-C induced MDR1 expression” value (MDR1 expression [1]) was “only weakly inhibited Ara-C induced MDR1 expression”.
In the case of `COC1C=CC=C(C)C(=O)NC2=CC(=O)C=C(C2=O)C(OC)C(C)CC(OC)C(OC)C(C)C=C(C)C1OC(N)=O` (centres unmarked) [herbimycin A], the “inhibition of Ara-C induced MDR1 expression” value (MDR1 expression [1]; 0.35-3 μM herbimycin A) was “little or no capacity to inhibit Ara-C induced MDR1 expression; also recorded: ineffective at inhibiting MDR1 induction by Ara-C”.
With `NC(=O)NO` [hydroxyurea] the MDR1 induction [2] was “MDR1 induction, both at the mRNA and at the protein levels, was observed”, the “MDR1 mRNA expression” value [2] was “induce MDR1 mRNA expression” and the “Rh123 or DiOC2(3) efflux” value ([2]; K562) was 3-10%.
With `CN(Cc1cnc2nc(N)nc(N)c2n1)c1ccc(C(=O)N[C@@H](CCC(=O)O)C(=O)O)cc1` [methotrexate] the MDR1 induction [2] was “MDR1 induction, both at the mRNA and at the protein levels, was observed” and the “maintenance of MDR1 expression after removal of drug” value [2] was “maintained for a least several weeks”.
With `N#CC(C#N)=Cc1cc(O)c(O)c(O)c1` [tyrphostin A25] the “inhibition of Ara-C induced MDR1 expression” value (MDR1 expression [1]; [6]) was “strongly inhibit Ara-C induced MDR1 expression; also recorded: inhibit Ara-C induced MDR1 expression”.
With `N#CC(=Cc1ccc(O)c(O)c1)C(=O)NCCCc1ccccc1` [tyrphostin B46] the “inhibition of Ara-C induced MDR1 expression” value (MDR1 expression [1]; [6]) was “strongly inhibit Ara-C induced MDR1 expression; also recorded: inhibit Ara-C induced MDR1 expression”.
